Experimental data taken from patent publication US10987354B2, “Inhibitors of influenza virus replication and uses thereof” (SUNSHINE LAKE PHARMA CO., LTD., priority 2016, dated 2021).

How the values were obtained:
[1] = test system: Influenza B virus-B/Lee/40; test: microbe, parasite or virus in culture; assay type: cell-based; conditions: 72 h, MDCK cells, CPE, 3 days, CellTiter, read-out: EC50, inhibitory activity against influenza virus (Influenza B virus-B/Lee/40)
virus H1N1 A/Weiss/43 = test: microbe, parasite or virus in culture; assay type: cell-based; conditions: Influenza A virus, H1N1, 120 h; MDCK cells, CPE, 5 days, CCK-8; read-out: EC50, inhibitory activity against influenza virus (A/Weiss/43(H1N1))

O=C(O)[C@H]1C2CCC(CC2)[C@@H]1Nc1nc(-c2c[nH]c3ncc(Cl)nc23)nc(-n2cccc2)c1F [Example 60, (2S,3S)-3-((2-(2-chloro-5H-pyrrolo[2,3-b]pyrazin-7-yl)-5-fluoro-6-(1H-pyrrol-1-yl)pyrimidin-4-yl)amino)bicyclo[2.2.2]octane-2-carboxylic Acid]
EC50 [1]: 26400 nM

CC(C)n1ccc2c(N[C@H]3C4CCC(CC4)[C@@H]3C(=O)O)nc(-c3c[nH]c4ncc(Cl)nc34)nc21 [Example 20, (2S,3S)-3-((2-(2-chloro-5H-pyrrolo[2,3-b]pyrazin-7-yl)-7-isopropyl-7H-pyrrolo[2,3-d]pyrimidin-4-yl)amino)bicyclo[2.2.2]octane-2-carboxylic Acid]
EC50 (virus H1N1 A/Weiss/43): 0.192 nM
EC50 [1]: 1620 nM
